Our source for the melting point values is patent US7589094B2, “N- (3-amino-2-hydroxy-propyl) substituted alkylamide compounds” (Elan Pharmaceuticals, Inc., priority 2001, dated 2009).

One may read the melting point as the temperature of the solid-liquid transition.

SMILES strings stand for the structures.

Molecule `CCCC1CCC(CC(=O)N[C@@H](Cc2cc(F)cc(F)c2)[C@H](O)CNCc2cccc(CC)c2)CC1=O` (stereo partly drawn) [Compound 213, N-{(1S,2R)-1-(3,5-difluorobenzyl)-3-[(3-ethylbenzyl)amino]-2-hydroxypropyl}-2-(3-oxo-4-propylcyclohexyl)acetamide] returned a melting point of 52 to 54 °C.

Molecule `CCc1cccc(CNC[C@@H](O)[C@H](Cc2cc(F)cc(F)c2)NC(=O)CC2CCCC(=O)C2)c1` (stereo partly drawn) [Compound 214, N-{(1S,2R)-1-(3,5-difluorobenzyl)-3-[(3-ethylbenzyl)amino]-2-hydroxypropyl}-2-(3-oxocyclohexyl)acetamide] yielded a melting point of 139.5 to 149.8 °C.
